Here are results for 1 molecule from patent US20180037574A1, “COMPOUND, COMPOSITION, ORGANIC ELECTROLUMINESCENCE ELEMENT, AND ELECTRONIC DEVICE” (IDEMITSU KOSAN CO., LTD., priority 2015, published 2018).

A short description of the series: Dissolution of host and dopant materials in toluene solution (visual check). Format: physicochemical. The following applies: 1.6-mass % toluene solution, host:dopant D-1 90:10 by mass, dissolved using ultrasonic waves, visually checked. The method, then:
The compound H-1 obtained in Synthesis Example 1 was used as a host material and the compound D-1 was used as a dopant material at a mixture ratio by mass of the compound H-1:the compound D-1 being 90:10 to prepare a 1.6-mass % toluene solution. The materials were dissolved using ultrasonic waves. […] The toluene solution was coated on the base substrate by spin coating to form a 50-nm thick film. After the film formation, an unnecessary portion was removed with toluene from the film. Subsequently, the film was heated and dried on a hot plate heated at 150 degrees C. to manufacture a coated laminate substrate on which an emitting layer was formed. It should be noted that all the operations for forming the emitting layer were conducted in a nitrogen-atmosphere glove box.
In Comparative 1, manufacturing of an organic EL device was attempted in the same manner as in Example 1 except that a comparative compound H-a was used in place of the compound H-1 as the host material. However, the materials were not dissolved in the toluene solution but whitened to be unable to prepare a solution, so that an organic EL device was not manufactured.

For the molecule `c1ccc(-c2ccc(-c3nc(-n4c5ccccc5c5cc(-n6c7ccccc7c7ccccc76)ccc54)nc(-n4c5ccccc5c5cc(-n6c7ccccc7c7ccccc76)ccc54)n3)cc2)cc1` [H-a], the “solubility in toluene solution” value is on record as “not dissolved”.
